Laboratory results from patent US10669283B2, “Compound and pharmacologically acceptable salt thereof” (MEIJI SEIKA PHARMA CO., LTD., priority 2016, dated 2020).

system: PDE4; test: PDE4 inhibition, scintillation proximity assay (SPA); assay type: biochemical; details: scintillation proximity assay (SPA); evaluated as classes A, B, C; read-out: PDE4 Inhibitory Activity (concentration for the inhibition rate of 50%);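 as to PDE4 Inhibitory Activity (concentration for the inhibition rate of 50%): A below 100 nM B 100 to below 1000 nM C 1000 nM or more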
Outline: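 Scintillation proximity read-out: [2,8-3H]-cAMP hydrolysis by PDE4 ran 120 min at room temperature in Tris-HCl pH 7.4 buffer with 8.3 mM MgCl2, 1.7 mM EGTA and 3 mg/mL BSA. Bead-bound product (YSi-SPA with ZnSO4, 15 min) counted; blank lacks enzyme, control has DMSO only.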

`CC(O)c1ccc(-c2nccs2)c2oc(N3CC4CCCC(C3)N4)nc12` (stereo not drawn) [Example 239, 1-(2-(3,9-Diazabicyclo[3.3.1]nonan-3-yl)-7-(thiazol-2-yl)benzo[d]oxazol-4-yl)ethan-1-ol] and `CC(O)c1ccc(-c2nccs2)c2oc(N3CC4CC(C3)N4)nc12` (stereo not drawn) [Example 240, 1-(2-(3,6-Diazabicyclo[3.1.1]heptan-3-yl)-7-(thiazol-2-yl)benzo[d]oxazol-4-yl)ethan-1-ol] cannot be ordered by IC50: < 100 nM for the first, < 100 nM for the second.

`CC(=O)Nc1cc(-c2nccs2)c2oc(N3CC4CCCC(C3)N4)nc2c1` [Example 48, N-(2-(3,9-diazabicyclo[3.3.1]nonan-3-yl)-7-(thiazol-2-yl)benzo[d]oxazol-5-yl)acetamide] and `CC(=O)Nc1ccc(-c2nccs2)c2oc(N3CC4CCCC(C3)N4)nc12` [Example 34, N-(2-(3,9-Diazabicyclo[3.3.1]nonan-3-yl)-7-(thiazol-2-yl)benzo[d]oxazol-4-yl)acetamide] cannot be ordered by IC50: < 100 nM for the first, < 100 nM for the second.

First: CC(O)c1cc(-c2nccs2)c2oc(N3CC4CC(C3)N4)nc2c1 (stereo not drawn) [Example 107, 1-(2-(3,6-Diazabicyclo[3.1.1]heptan-3-yl)-7-(thiazol-2-yl)benzo[d]oxazol-5-yl)ethan-1-ol]
Second: COC(c1cc(-c2nccs2)c2oc(N3CC4CC(C3)N4)nc2c1)C(F)(F)F (stereo not drawn) [Example 144, 2-(3,6-Diazabicyclo[3.1.1]heptan-3-yl)-7-(thiazol-2-yl)-5-(2,2,2-trifluoro-1-methoxyethyl)benzo[d]oxazole]
The IC50 of the first is higher: 100 to 1000 nM for the first, < 100 nM for the second.

`COCc1cc(-c2nccs2)c2oc(N3CC4CCC(C3)N4)nc2c1C(F)(F)F` [Example 167, 2-(3,8-Diazabicyclo[3.2.1]octan-3-yl)-5-(methoxymethyl)-7-(thiazol-2-yl)-4-(trifluoromethyl)benzo[d]oxazole] and `CC(C)(O)c1cc(-c2nccs2)c2oc(N3CC4CCCC(C3)N4)nc2c1C(F)(F)F` [Example 166, 2-(2-(3,9-Diazabicyclo[3.3.1]nonan-3-yl)-7-(thiazol-2-yl)-4-(trifluoromethyl)benzo[d]oxazol-5-yl)propan-2-ol] cannot be ordered by IC50: < 100 nM for the first, < 100 nM for the second.

`OC(c1ccc(-c2nccs2)c2oc(N3CC4CCC(C3)N4)nc12)C(F)(F)F` (stereo not drawn) [Example 118, 1-(2-(3,8-Diazabicyclo[3.2.1]octan-3-yl)-7-(thiazol-2-yl)benzo[d]oxazol-4-yl)-2,2,2-trifluoroethan-1-ol] and `N#CCOC(c1ccc(-c2nccs2)c2oc(N3CC4CCC(C3)N4)nc12)C(F)(F)F` (stereo not drawn) [Example 228, 2-(1-(2-(3,8-Diazabicyclo[3.2.1]octan-3-yl)-7-(thiazol-2-yl)benzo[d]oxazol-4-yl)-2,2,2-trifluoroethoxy)acetonitrile] cannot be ordered by IC50: < 100 nM for the first, < 100 nM for the second.

First: COC(C)(C)c1cc(-c2nccs2)c2oc(N3CC4CCCC(C3)N4)nc2c1OC(F)(F)F [Example 200, 2-(3,9-Diazabicyclo[3.3.1]nonan-3-yl)-5-(2-methoxypropan-2-yl)-7-(thiazol-2-yl)-4-(trifluoromethoxy)benzo[d]oxazole]
Second: O=C(O)c1cc(-c2nccs2)c2oc(N3CC4CCCC(C3)N4)nc2c1OC(F)(F)F [Example 191, 2-(3,9-Diazabicyclo[3.3.1]nonan-3-yl)-7-(thiazol-2-yl)-4-(trifluoromethoxy)benzo[d]oxazole-5-carboxylic acid]
The IC50 of the first is lower: < 100 nM for the first, 100 to 1000 nM for the second. The first is the more potent here.

`COCC(O)COc1ccc(-c2nccs2)c2oc(N3CC4CCC(C3)N4)nc12` (stereo not drawn) [Example 83, 1-((2-(3,8-Diazabicyclo[3.2.1]octan-3-yl)-7-(thiazol-2-yl)benzo[d]oxazol-4-yl)oxy)-3-methoxypropan-2-ol] and `Cc1ccc(-c2nccs2)c2oc(N3CC4CCC(C3)N4)nc12` [Example 25, 2-(3,8-Diazabicyclo[3.2.1]octan-3-yl)-4-methyl-7-(thiazol-2-yl)benzo[d]oxazole] cannot be ordered by IC50: < 100 nM for the first, < 100 nM for the second.

Compared with `CC(O)c1cc(-c2nccs2)c2oc(N3CC4CC(C3)N4)nc2c1OC(F)(F)F` (stereo not drawn) [Example 272, 1-(2-(3,6-Diazabicyclo[3.1.1]heptan-3-yl)-7-(thiazol-2-yl)-4-(trifluoromethoxy)benzo[d]oxazol-5-yl)ethan-1-ol], `O=C(O)c1cc(-c2nccs2)c2oc(N3CC4CCC(C3)N4)nc2c1OC(F)(F)F` [Example 189, 2-(3,8-Diazabicyclo[3.2.1]octan-3-yl)-7-(thiazol-2-yl)-4-(trifluoromethoxy)benzo[d]oxazole-5-carboxylic acid] is higher in IC50: < 100 nM for the first, 100 to 1000 nM for the second.

`FC(F)(F)Oc1ccc(-c2nccs2)c2oc(N3CC4CCCC(C3)N4)nc12` [Example 30, 2-(3,9-Diazabicyclo[3.3.1]nonan-3-yl)-7-(thiazol-2-yl)-4-(trifluoromethoxy)benzo[d]oxazole] and `Cc1ccc(-c2nccs2)c2oc(N3CC4CCCC(C3)N4)nc12` [Example 27, 2-(3,9-Diazabicyclo[3.3.1]nonan-3-yl)-4-methyl-7-(thiazol-2-yl)benzo[d]oxazole] cannot be ordered by IC50: < 100 nM for the first, < 100 nM for the second.

`FC(F)(F)Oc1cc(-c2nccs2)c2oc(N3CC4CC(C3)N4)nc2c1` [Example 56, 2-(3,6-Diazabicyclo[3.1.1]heptan-3-yl)-7-(thiazol-2-yl)-5-(trifluoromethoxy)benzo[d]oxazole] and `OC(c1cc(-c2nccs2)c2oc(N3CC4CCC(C3)N4)nc2c1)C(F)(F)F` (stereo not drawn) [Example 138, 1-(2-(3,8-Diazabicyclo[3.2.1]octan-3-yl)-7-(thiazol-2-yl)benzo[d]oxazol-5-yl)-2,2,2-trifluoroethan-1-ol] cannot be ordered by IC50: < 100 nM for the first, < 100 nM for the second.

`C=CCOc1cc(-c2nccs2)c2oc(N3CC4CCC(C3)N4)nc2c1` [Example 72, 5-(Allyloxy)-2-(3,8-diazabicyclo[3.2.1]octan-3-yl)-7-(thiazol-2-yl)benzo[d]oxazole] and `CSc1cc(-c2nccs2)c2oc(N3CC4CCC(C3)N4)nc2c1` [Example 39, 2-(3,8-Diazabicyclo[3.2.1]octan-3-yl)-5-(methylthio)-7-(thiazol-2-yl)benzo[d]oxazole] cannot be ordered by IC50: < 100 nM for the first, < 100 nM for the second.

`CS(=O)(=O)c1cc(-c2nccs2)c2oc(N3CC4CC(C3)N4)nc2c1` [Example 46, 2-(3,6-Diazabicyclo[3.1.1]heptan-3-yl)-5-(methylsulfonyl)-7-(thiazol-2-yl)benzo[d]oxazole] and `CN(C)Cc1cc(-c2nccs2)c2oc(N3CC4CCC(C3)N4)nc2c1` [Example 169, 1-(2-(3,8-Diazabicyclo[3.2.1]octan-3-yl)-7-(thiazol-2-yl)benzo[d]oxazol-5-yl)-N,N-dimethylmethanamine] cannot be ordered by IC50: < 100 nM for the first, < 100 nM for the second.

`COC(C)(C)c1cc(-c2cscn2)c2oc(N3CC4CC(C3)N4)nc2c1OC(F)(F)F` [Example 287, 2-(3,6-Diazabicyclo[3.1.1]heptan-3-yl)-5-(2-methoxypropan-2-yl)-7-(thiazol-4-yl)-4-(trifluoromethoxy)benzo[d]oxazole] and `CC(C)(O)c1cc(-c2cscn2)c2oc(N3CC4CCC(C3)N4)nc2c1OC(F)(F)F` [Example 291, 2-(2-(3,8-Diazabicyclo[3.2.1]octan-3-yl)-7-(thiazol-4-yl)-4-(trifluoromethoxy)benzo[d]oxazol-5-yl)propan-2-ol] cannot be ordered by IC50: < 100 nM for the first, < 100 nM for the second.

`N#CCOC(c1ccc(-c2nccs2)c2oc(N3CC4CC(C3)N4)nc12)C(F)(F)F` (stereo not drawn) [Example 226, 2-(1-(2-(3,6-Diazabicyclo[3.1.1]heptan-3-yl)-7-(thiazol-2-yl)benzo[d]oxazol-4-yl)-2,2,2-trifluoroethoxy)acetonitrile] and `OC1(COC(c2ccc(-c3nccs3)c3oc(N4CC5CC(C4)N5)nc23)C(F)(F)F)CC1` (stereo not drawn) [Example 232, 1-((1-(2-(3,6-Diazabicyclo[3.1.1]heptan-3-yl)-7-(thiazol-2-yl)benzo[d]oxazol-4-yl)-2,2,2-trifluoroethoxy)methyl)cyclopropan-1-ol] cannot be ordered by IC50: < 100 nM for the first, < 100 nM for the second.

`c1csc(-c2ccc(-c3nccs3)c3oc(N4CC5CCC(C4)N5)nc23)n1` [Example 85, 2-(3,8-Diazabicyclo[3.2.1]octan-3-yl)-4,7-di(thiazol-2-yl)benzo[d]oxazole] and `OCc1ccc(-c2nccs2)c2oc(N3CC4CCC(C3)N4)nc12` [Example 132, (2-(3,8-Diazabicyclo[3.2.1]octan-3-yl)-7-(thiazol-2-yl)benzo[d]oxazol-4-yl)methanol] cannot be ordered by IC50: < 100 nM for the first, < 100 nM for the second.

same assay, conditions: scintillation proximity assay; class symbols; read-out: PDE4 Inhibitory Activity

`CC(C)C(O)C(F)(F)Oc1ccc(-c2nccs2)c2oc(N3CC4CC(C3)N4)nc12` (stereo not drawn) [Example 362, 1-((2-(3,6-diazabicyclo [3.1.1]heptan-3-yl)-7-(thiazol-2-yl)benzo[d]oxazol-4-yl)oxy)-1,1-difluoro-3-methylbutan-2-ol] and `COC(C)(C)C(F)(F)Oc1ccc(-c2nccs2)c2oc(N3CC4CC(C3)N4)nc12` [Example 393, 2-(3,6-diazabicyclo[3.1.1]heptan-3-yl)-4-(1,1-difluoro-2-methoxy-2-methylpropoxy)-7-(thiazol-2-yl) benzo[d]oxazole] cannot be ordered by IC50: < 100 nM for the first, < 100 nM for the second.

`ON1C2CCC1CN(c1nc3c(OC(F)(F)F)c(Cl)cc(-c4nccs4)c3o1)C2` [Example 375, 3-(5-chloro-7-(thiazol-2-yl)-4-(trifluoro-methoxy)benzo[d]oxazol-2-yl)-3,8-diazabicyclo[3.2.1] octan-8-ol] and `OC(c1ccc(-c2nccs2)c2oc(N3CC4CCC(C3)N4O)nc12)C(F)(F)F` (stereo not drawn) [Example 379, 3-(7-(thiazol-2-yl)-4-(2,2,2-trifluoro-1-hydroxyethyl)benzo[d]oxazol-2-yl)-3,8-diaza-bicyclo[3.2.1] octan-8-ol] cannot be ordered by IC50: < 100 nM for the first, < 100 nM for the second.

`CN(CCO)C(=O)C(F)(F)Oc1ccc(-c2nccs2)c2oc(N3CC4CC(C3)N4)nc12` [Example 407, 2-((2-(3,6-diazabicyclo [3.1.1]heptan-3-yl)-7-(thiazol-2-yl)benzo[d]oxazol-4-yl)oxy)-2,2-difluoro-N-(2-hydroxy-ethyl)-N-methyl-acetamide] and `CN(C)S(=O)(=O)c1ccc(-c2nccs2)c2oc(N3CC4CC(C3)N4)nc12` [Example 388, 2-(3,6-diazabicyclo[3.1.1]heptan-3-yl)-N,N-dimethyl-7-(thiazol-2-yl)benzo [d]oxazole-4-sulfonamide] cannot be ordered by IC50: < 100 nM for the first, < 100 nM for the second.
